“Also recorded” adds a separate entry of the source.
Assays:
[1] = Glutathione incubation assay; assay type: physicochemical; details: 2 mM compound, 18 mM glutathione, MeCN/water, up to 48 h, LC/MS
Experimental: For the glutathione incubation assay, 20 mM stock solutions of compound 14b in MeCN (400 µL) and glutathione GSH in MeCN: Milli-Q H2O (10 mL, 1: 1, v/v) were prepared in separate scintillation vials. To prepare the incubation solution, 100 µL of 14b solution and 900 µL of GSH solution were taken in a clean HPLC vial. The final concentrations of 14b and GSH were 2 mM and 18 mM, respectively. In addition, a 2 mM reference solution of 14b was prepared by adding 100 µL of 14b stock solution to an HPLC vial containing 900 µL of MeCN: H2O (1:1), and an 18 mM reference solution of GSH was prepared by adding 900 µL of GSH stock solution to an HPLC vial containing 100 µL of MeCN.
Low-resolution mass spectra were obtained using an Agilent InfinityLab MSD single quadrupole mass spectrometer system (ESI). […] Chromatograms were detected using 254 and 280 nm wavelengths with 5 µL injections and data were processed using a general walkup method*.
*LC/MS Walkup Method: an Agilent InfinityLab MSD single quadrupole mass spectrometer equipped with an API-ES and an Agilent Infinity II 1260 HPLC equipped with an Agilent Infinity 1260 variable wavelength detector and a Phenomenex Synergi […] Hydro-RP 100A C18 30 × 2 mm column. […] MS Method: using atmospheric pressure ionization–electrospray, positive and negative ions were monitored in the range of 70–700 or 200–2000 (for compounds with a MW > 700).

human NPSR-107I = biological target: T1, human NPSR-107I (Homo sapiens, UniProt Q6W5P4, N107I); assay: Ca+2 mobilization assay (apparent Ke against NPS); assay type: cell-based
T1 construct: expressed in transfected cells
T1 sequence (Q6W5P4 1-371 N107I): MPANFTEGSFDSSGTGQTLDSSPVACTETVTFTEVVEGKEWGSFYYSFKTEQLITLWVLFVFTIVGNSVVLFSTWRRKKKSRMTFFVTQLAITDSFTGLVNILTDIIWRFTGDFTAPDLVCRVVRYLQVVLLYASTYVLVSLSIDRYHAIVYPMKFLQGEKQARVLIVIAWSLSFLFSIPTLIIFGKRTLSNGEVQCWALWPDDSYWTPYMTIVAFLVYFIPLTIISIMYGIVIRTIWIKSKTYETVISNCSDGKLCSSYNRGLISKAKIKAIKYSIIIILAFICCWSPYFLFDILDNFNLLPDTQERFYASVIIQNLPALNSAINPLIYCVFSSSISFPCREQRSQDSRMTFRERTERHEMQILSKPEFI
Experimental: A stable cell line overexpressing the human NPSR-107I was created in CHO-Gαq16 cells (RD-HGA16, Molecular Devices), as previously described. Briefly, CHO-Gαq16 cells were transfected with pcDNA 3.1 human NPSR-107I using Lipofectamine reagent. Transfected cells were plated into 10 cm^2 dishes 24 h post-transfection and were selected using Geneticin. After 2 weeks, individual clones were selected, grown to confluence, and screened in a functional 96-well calcium mobilization assay that measured the response to NPS (100 nM final). […] A final working clone was chosen for all subsequent studies based on NPS potency and the calcium mobilization signal window. CHO-Gα16-hNPSR-107I cells were cultured in Ham’s F12 media supplemented with 10% FBS, 100 units/mL penicillin, 100 μg/mL streptomycin, 200 μg/mL hygromycin, and 400 μg/mL geneticin. Media were purchased from HyClone (GE Life Sciences); FBS, penicillin/streptomycin, hygromycin, and geneticin were purchased from Invitrogen (Thermo Scientific). The day before the assay, cells were plated into 96-well black-walled assay plates at 25,000–40,000 cells/well in growth medium without selection antibiotics. Cells were incubated overnight at 37 °C, 5% CO2. The FLIPR Calcium 5 assay kit (Molecular Devices) was used according to the manufacturer’s instructions with minor modifications. Briefly, reconstituted dye was diluted in pre-warmed assay buffer (HBSS, 20 mM HEPES, 2.5 mM probenecid, pH 7.4 at 37 °C). Growth medium was removed, and the cells were gently washed with assay buffer. Calcium 5 dye was added to the cells and the plate was incubated for 45 min at 37 °C, 5% CO2. A single concentration of test compound and 10-point concentration–response curves of NPS (ranging from 100 nM to 1 pM) were prepared at 10× the desired final concentration. Cells were pretreated with the test compound or vehicle in a final concentration of 0.25% BSA/1% DMSO for 15 min at 37 °C. Assay plates were read with a FlexStation II instrument (excitation at 485 nm, detection at 525 nm, Molecular Devices). Calcium-mediated changes in fluorescence were monitored every 1.5 s over a 90 s time period. NPS was added during the read and the maximum kinetic […] (SoftMax [Max-Min], Molecular Devices) in relative fluorescent units (RFU) was measured. Data were fitted to a three-parameter logistic curve to generate EC50 values (GraphPad Prism 6.0). Antagonism was quantified by measuring the ratio of equi-active concentrations of agonist measured in the presence or absence of the antagonist. Apparent Ke values were calculated using the equation Ke = [L]/((EC50^+/EC50^−) − 1), where [L] is the concentration of test compound, EC50^+ is the EC50 of NPS with test compound, and EC50^– is the EC50 of NPS alone. Ke values were considered valid when the EC50^+/EC50^− ratio was at least 4. HBSS and HEPES were purchased from Gibco (Thermo Scientific); probenecid, BSA, and DMSO were purchased from Sigma-Aldrich.

**Q.** For `CC(C)CC1(c2ccccc2)OC(=O)C2=C1CN(C(=O)NCc1ccccc1)CC2` (single isomer, unassigned; (+)) [Compound 14b, (+) N-benzyl-3-(2-methylpropyl)-1-oxo-3-phenyl-1H,3H,4H,5H,6H,7H-furo[3,4-c]pyridine-5-carboxamide], which Glutathione adduct formation [1] is on record?
**A.** Its Glutathione adduct formation is “No glutathione adduct was identified; also recorded: stable”.

**Q.** What about the “Shift of the agonist activity of NPS” value (human NPSR-107I; 3 µM concentration, calcium mobilization assay) of the same compound?
**A.** Its value is “significant right shift”.

**Q.** And the Kb (human NPSR-107I; Calcium Mobilization, CHO-Gα16-hNPSR-107I cells, shift of NPS EC50)?
**A.** Its Kb is 71.4 nM.

**Q.** And the “Potency relative to SHA-68” value (human NPSR-107I; in vitro antagonist potency)?
**A.** The value was “approximately sevenfold less potent”.

From PMC8538004, “Identification of a Novel Neuropeptide S Receptor Antagonist Scaffold Based on the SHA-68 Core” (Pharmaceuticals, 2021)
